The results in this text go back to PubChem BioAssay (NCI).

What all share (assay): growth of human tumour cells (NCI), 48 h
Assay [1] deals with 786-0 renal.
For assay [2], the system named is BT-549 breast.
Assay [3] relates to CAKI-1 renal.
The subject of assay [4] is HCC-2998 colon.
In assay [5] the test system is HCT-116 colon.
The test system of assay [6] is HOP-92 NSCLC.
Assay [7] deals with SF-295 CNS.
Assay [8] concerns SK-OV-3 ovarian.
The subject of assay [9] is SN12C renal.
Assay [10] relates to TK-10 renal.

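Compound exposure: 48 hours, 5 concentrations, 96-well plates. Here, GI50 denotes the concentration required for 50% inhibition of growth. Definition used: TGI = concentration required for complete inhibition of growth.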 Bounds are passed on as bounds.

As for `CC1=Nc2c([nH]c(=S)[nH]c2=O)NC(c2c(Cl)cccc2Cl)C1` (stereo not given), the TGI amounted to 1.76 µM in assay [1]; 2.64 µM in assay [2]; 14.8 µM in assay [3]; 22.9 µM in [4]; 1.59 µM in [5]; 17.2 µM in [6]. Moreover, the TGI in [7] is 4.41 µM; in [8], 18.1 µM; in assay [9] it was 3.09 µM; in assay [10], 18 µM.
`Cn1cc(C2=C(Nc3ccccc3)C(=O)NC2=O)c2ccccc21`: the GI50 was more than 25 µM in [1]; more than 25 µM in assay [2]; more than 25 µM in assay [3]; more than 25 µM in assay [4]; 16.4 µM in assay [5]; more than 25 µM in assay [6]. For the same molecule, the GI50 in [7], in assay [8], in assay [9] and in [10] was more than 25 µM each time. Also, the TGI in assay [1], in [2], in assay [3], in assay [4], in assay [5] and in assay [6] was more than 25 µM each time. Also, the TGI in assay [7], in assay [8], in [9] and in assay [10] was more than 25 µM each time.
As for `O=[N+]([O-])c1cc2no[n+]([O-])c2cc1N1CCCCC1`, the TGI is 2.62 µM in [1]; 45.2 µM in assay [2]; 12.5 µM in [3]; 33.1 µM in assay [4]; 5.99 µM in assay [5]; 7.04 µM in [6]. Also, the TGI in assay [7] was found to be 34.8 µM; in assay [8] it was 27.4 µM; in assay [9] it was 4.34 µM; in assay [10] it was 9.08 µM.
Consider `CN(CCC(=O)/C(=C\c1ccccc1)c1ccc(Cl)cc1)Cc1ccccc1`, for which the GI50 is 2.03 µM in assay [1]; 2.94 µM in assay [2]; 3.54 µM in [3]; 3.54 µM in assay [4]; 2.35 µM in assay [5]; 2.55 µM in [6]. The GI50 is 2.76 µM in [7], 12.7 µM in assay [8], 2.38 µM in [9] and 2.34 µM in assay [10]. The TGI in assay [1] came to 4.1 µM; in assay [2], 8.76 µM; in assay [3], 12.5 µM; in assay [4], 9.77 µM; in assay [5], 5.73 µM; in assay [6] it was 6.16 µM. The TGI in assay [7] came out at 7.5 µM; in assay [8], 26.4 µM; in [9] it was 6.39 µM; in assay [10] it was 5.43 µM.
Take `CC(=O)O[C@H]1CC[C@@]2(C)C(=C/C(=N/OCCN3CCCC3)[C@H]3[C@@H]4CC[C@H](OC(C)=O)[C@@]4(C)CC[C@@H]32)C1`: the GI50 is 30.8 µM in assay [1]; 53.4 µM in [2]; more than 100 µM in assay [3]; 45 µM in assay [4]; 27.8 µM in [5]; 16.7 µM in [6]. Besides, the GI50 in assay [7] is 26.1 µM; in assay [8], 40.8 µM; in assay [9], more than 100 µM; in assay [10] it was 90.4 µM. Further, the TGI in assay [1] is more than 100 µM; in [2] it was more than 100 µM; in [3], more than 100 µM; in [4], more than 100 µM; in assay [5] it was more than 100 µM; in [6], 96.5 µM. Further, the TGI in assay [7] was 66.1 µM; in assay [8], more than 100 µM; in [9], more than 100 µM; in [10], more than 100 µM.
In the case of `CC(=O)Nc1n[n+]([O-])c2cc(C)ccc2[n+]1[O-]`, the TGI in assay [1] was 17.5 µM; in assay [2] it was 14.2 µM; in [3] it was 12 µM; in assay [4], 71 µM; in assay [5], 13.5 µM; in [6], 7.29 µM. Moreover, the TGI in assay [7] worked out at 12.6 µM; in assay [8] it was 20.3 µM; in assay [9], 18.8 µM; in [10], 58.1 µM.
On to `O=C1N(Cc2ccccc2Cl)c2ccccc2C12NN=C(c1cccc(Cl)c1)S2` (stereo not given), for which the GI50 in assay [1] is 1.72 µM; in assay [2] it was 1.83 µM; in assay [3], 1.69 µM; in assay [4], 1.78 µM; in assay [5], 1.62 µM; in assay [6] it was 1.74 µM. Moreover, the GI50 in [7] was 1.71 µM; in [8], 1.69 µM; in [9], 1.91 µM; in assay [10] it was 1.77 µM. The TGI in assay [1] came to 3.12 µM; in [2], 3.44 µM; in [3] it was 3.07 µM; in assay [4], 3.24 µM; in assay [5], 2.98 µM; in assay [6], 3.17 µM. In addition, the TGI in assay [7] was found to be 3.17 µM; in assay [8] it was 3.05 µM; in [9] it was 3.92 µM; in assay [10], 3.15 µM.
Turning to `CCN1C(=NCCO)NS(=O)(=O)c2ccccc21`, the TGI in assay [1], in assay [2], in assay [3], in assay [4], in assay [5] and in assay [6] was more than 100 µM in each case. The TGI in assay [7], in assay [8], in assay [9] and in [10] was more than 100 µM in each case.
As for `CCOC(=O)Nc1cc2ccccc2c(N=Nc2ccccc2)c1O`, the TGI in [1], in assay [2], in assay [3], in assay [4], in [5] and in assay [6] was more than 100 µM throughout. Moreover, the TGI in assay [7], in assay [8], in [9] and in assay [10] was more than 100 µM throughout.
Turning to `CC(C)(C)N/N=C(\C(=O)NC1=C(Cl)C(=O)c2ccccc2C1=O)C1C=CCS1(=O)=O` (stereo not given), the TGI is 54 µM in [1]; 25.1 µM in [2]; 45.6 µM in assay [3]; 57.3 µM in assay [4]; 35 µM in [5]; 33 µM in assay [6]. Also, the TGI in [7] was 25.1 µM; in [8], more than 100 µM; in assay [9], 31.6 µM; in assay [10] it was more than 100 µM.
